{
  "source": "patent US20190365719A1",
  "about": "“COMBINATION TREATMENTS OF HSP90 INHIBITORS FOR ENHANCING TUMOR IMMUNOGENICITY AND METHODS OF USE THEREOF” (Massachusetts Institute of Technology, priority 2018, published 2019)",
  "format_in_all_cases": "cell-based, mouse",
  "key": {"[1]": {"system": "IFN-γ receptor KO and HSF1 knockout MC38 cells", "test": "Flow cytometry of MHC-I on IFN-γ receptor KO and Hsf1 KO MC38 cells", "protocol": "Cell Culture MC38 cells were kindly provided by A. Sharpe from Dana Farber Cancer Institute. Cells were maintained in DMEM supplemented with 10% FBS and penicillin/streptomycin. Cells were confirmed negative for mycoplasma contamination by PCR-based assay. MC38 cells were seeded in 12 well plates at a density of 125,000 cells per well and allowed to attach for 24 hours, and then treated with the indicated concentrations of HSP90i (NVP-HSP990) or IFN-γ. For Ifngra knockout, control or sgRNA targeting Ifngra ([…]) were cloned into pLenti-CRISPRv2 (Addgene #52561). Lentivirus was produced with HEK293T cells and MC38 cells were transduced with standard protocols. Transduced cells were selected with 2 μg/mL puromycin for 72 hours. Selected cells were then treated with DMSO, 60 nM Hsp90i, 10 ng/mL Ifng, or the combination and analyzed by flow cytometry.\nFor analysis of MHC Class I surface expression, cells were seeded into 12 well plates (125,000/well). 24-hours later, cells were treated with the indicated concentrations of HSP90i (NVP-HSP990) or DMSO vehicle. 72-hours after treatment, cells were dissociated with Accumax (Innovative Cell Technologies) and each treatment condition was distributed into 2 wells of a 96 well plate. […] Cytometric data were plotted and analyzed with FloJo."}, "MC38 cells [2]": {"system": "MC38 cells", "test": "qRT-PCR of MHC Class I and immunoproteasome genes in MC38 cells", "settings": "60 nM, 72 hours", "protocol": "FIGS. 5A-5L are graphs showing low dose administration of HSP90i diversifies the antigen repertoire of tumor cells. FIG. 5A is a bar graph showing relative mRNA expression MHC Class I and immunoproteasome gene expression in MC38 cells treated for 72 hours with HSP90i (60 nM) based on qRT-PCR analysis. All treated samples were normalized to DMSO (Veh)=1 (n=3); FIG. 5B is a schematic depiction of the effect of HSP90i treatment on proteasome composition and ONX-0914 mode of action; FIG. 5C is a bar graph showing cell surface expression of MHC Class I on MC38 cells treated with vehicle or HSP90i in combination with DMSO or ONX-0914 (500 nM). Normalized values calculated based on the median fluorescence intensity of the baseline sample for DMSO- or ONX-0914-treated samples (n=3); FIG. 5D is a schematic overview of protocol for MHC Class I peptide profiling; motif analysis for amino acid enrichment of 8-mer (FIG. 5E) and 9-mer peptides (FIG. 5F) identified by mass spectrometry; FIG. 5G is a histogram depicting the size distribution of peptides identified by MHC Class I IP and mass spectrometry; FIG. 5H is a Venn diagram of the number of unique peptides identified in vehicle- and Hsp90i-treated samples. […]"}, "MC38 cells [3]": {"system": "MC38 cells", "test": "Immunoblot analysis of MC38 cells", "protocol": "Protein extraction was performed by washing cells 2× with PBS. A volume of lysis buffer (50 mM Tris pH 7.5, 150 mM NaCl, 1 mM EDTA, 1% Triton-X100, 0.1% SDS, 1× Halt Protease/Phosphatase inhibitor) equal to 1/10 the culture media volume was added directly to the culture dish and incubated for 2-3 min on ice. Lysates were then thoroughly scraped and pipetted into 1.5 mL tubes and incubated for an additional 30 min on ice. Lysates were then cleared by centrifugation at 14,000×g for 15 min and quantified using BCA Assay. Lysates were separated by SDS-PAGE and transferred to 0.2 μm nitrocellulose membranes prior to washing with PBST, blocking with 5% milk in PBST, and incubation with primary antibody overnight at 4° C. All primary antibodies were diluted 1:1000 in 2.5% milk in PBST. Membranes were then washed 4×5 min with PBST and incubated with HRP conjugated secondary antibody at a 1:10,000 dilution in 2.5% milk in PBST, and washed again 4×5 min with PBST. Detection of secondary antibody was performed with SuperSignal West Pico or Femto ECL reagents (Pierce) and digitally imaged on a ChemiDoc (BioRad).\nImmunoblotting was performed as described in Example 4. Briefly, protein extraction was performed by washing cells with PBS and then isolating whole cell lysates in lysis buffer (50 mM Tris pH 7.5, 150 mM NaCl, 1 mM EDTA, 1% Triton-X100, 0.1% SDS, 1× Halt Protease/Phosphatase inhibitor) Lysates were then cleared by centrifugation and quantified using BCA Assay. Lysates were separated by SDS-PAGE and transferred to 0.2 μm nitrocellulose membranes prior to washing with PBST, blocking with 5% milk in PBST, and incubation with primary antibody overnight at 4° C. All primary antibodies were diluted 1:1000 in 2.5% milk in PBST. Membranes were then washed and incubated with HRP conjugated secondary antibody. Detection of secondary antibody was performed with SuperSignal West Pico or Femto ECL reagents (Pierce) and digitally imaged on a ChemiDoc (BioRad)."}},
  "data": [
    {"compound": "COc1cccc(-c2cc(F)ccc2[C@H]2Cc3nc(N)nc(C)c3C(=O)N2)n1", "note": "[NVP-HSP990]", "values": [
      {"measurement": "MHC-I in IFN-γ receptor KO MC38 cells", "setting": "[1]; 60 nM", "value": "induced MHC-I in IFN-γ receptor KO cells"},
      {"measurement": "MHC-I induction in HSF1 knockout MC38 cells", "setting": "[1]; two knockout cell lines", "value": "HSF1 was not required for the induction of MHC-I"},
      {"measurement": "expression of immunoproteasome genes Psme1, Psme2, Psmb8, Psmb9, Psmb10", "setting": "MC38 cells [2]", "value": "robustly induced"},
      {"measurement": "transcript levels of MHC Class I heavy chains H2-K1 and H2-D1 or light chain B2m", "setting": "MC38 cells [2]", "value": "did not alter transcript levels"},
      {"measurement": "Psmb5 protein levels", "setting": "MC38 cells [3]; 72 hours", "value": "slightly decreased Psmb5 levels"},
      {"measurement": "Psmb8 protein levels", "setting": "MC38 cells [3]; 72 hours", "value": "increased the protein levels of Psmb8"},
      {"measurement": "expression of downstream markers of IFN-γ signaling (Stat1, Stat3, pStat3, PD-L1)", "setting": "MC38 cells [3]; Hsp90i 60 nM or IFN-γ 10 ng/mL", "value": "minimal to undetectable effect"}
    ]}
  ]
}
